# Where “and” joins values, the source holds several entries; their conditions need not be identical. Identical values can stand only once.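 Test compounds were applied to cells in 96-well plates for 48 hours at 5 doses. GI50 is the concentration that inhibits growth by half. Definition used: TGI = concentration required for complete inhibition of growth.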
# Legend:
# Test in all cases: growth of human tumour cells (NCI), 48 h
# HL-60(TB) leukemia = system: HL-60(TB) leukemia
# A498 renal = system: A498 renal
# SF-295 CNS = system: SF-295 CNS
# SF-539 CNS = system: SF-539 CNS
# CCRF-CEM leukemia = system: CCRF-CEM leukemia
# KM20L2 colon = system: KM20L2 colon
# OVCAR-3 ovarian = system: OVCAR-3 ovarian
# COLO 205 colon = system: COLO 205 colon
# SF-268 CNS = system: SF-268 CNS
# SK-MEL-5 melanoma = system: SK-MEL-5 melanoma
# M14 melanoma = system: M14 melanoma
# OVCAR-5 ovarian = system: OVCAR-5 ovarian
# SNB-19 CNS = system: SNB-19 CNS
# MOLT-4 leukemia = system: MOLT-4 leukemia
# HOP-62 NSCLC = system: HOP-62 NSCLC
# NCI-H522 lung = system: NCI-H522 lung
# OVCAR-4 ovarian = system: OVCAR-4 ovarian
# ACHN renal = system: ACHN renal
# OVCAR-8 ovarian = system: OVCAR-8 ovarian
# A549 NSCLC = system: A549 NSCLC
# RXF 393 renal = system: RXF 393 renal
# NCI-H23 lung = system: NCI-H23 lung
# SN12C renal = system: SN12C renal
# SNB-75 CNS = system: SNB-75 CNS
# K-562 leukemia = system: K-562 leukemia
# CAKI-1 renal = system: CAKI-1 renal
# EKVX NSCLC = system: EKVX NSCLC
# DLD-1 colon = system: DLD-1 colon
# TK-10 renal = system: TK-10 renal
# HOP-92 NSCLC = system: HOP-92 NSCLC
# M19-MEL melanoma = system: M19-MEL melanoma
# RPMI-8226 leukemia = system: RPMI-8226 leukemia
# MALME-3M melanoma = system: MALME-3M melanoma
# HOP-18 NSCLC = system: HOP-18 NSCLC
# IGROV1 ovarian = system: IGROV1 ovarian
# KM12 colon = system: KM12 colon
# 786-0 renal = system: 786-0 renal
# HCT-116 colon = system: HCT-116 colon
# NCI-H226 lung = system: NCI-H226 lung
# HCT-15 colon = system: HCT-15 colon
# UACC-62 melanoma = system: UACC-62 melanoma
# SW-620 colon = system: SW-620 colon
# UO-31 renal = system: UO-31 renal
# HT29 colon = system: HT29 colon
# NCI-H460 lung = system: NCI-H460 lung
# U251 CNS = system: U251 CNS
# HCC-2998 colon = system: HCC-2998 colon
# SK-MEL-2 melanoma = system: SK-MEL-2 melanoma
# SNB-78 CNS = system: SNB-78 CNS
# RXF-631 renal = system: RXF-631 renal
# LOX IMVI melanoma = system: LOX IMVI melanoma
# SK-OV-3 ovarian = system: SK-OV-3 ovarian
# SK-MEL-28 melanoma = system: SK-MEL-28 melanoma
# DMS 273 small cell lung = system: DMS 273 small cell lung
# UACC-257 melanoma = system: UACC-257 melanoma
# XF 498 CNS = system: XF 498 CNS
# DU-145 prostate = system: DU-145 prostate
# SR leukemia = system: SR leukemia
# LXFL 529 NSCLC = system: LXFL 529 NSCLC
structure (smiles),measurement,setting,value
COc1cc(-c2nn3c(=O)n(-c4ccc(Cl)cc4)c(=O)nc3s2)cc(OC)c1OC,GI50,HL-60(TB) leukemia,> 100 µM
same,TGI,HL-60(TB) leukemia,> 100 µM
same,GI50,A498 renal,> 50 µM
same,TGI,A498 renal,> 100 µM
same,GI50,SF-295 CNS,18.2 µM
same,TGI,SF-295 CNS,> 50 µM and 90.2 µM
same,GI50,SF-539 CNS,32.9 µM
same,TGI,SF-539 CNS,50 µM and 45.6 µM
same,GI50,CCRF-CEM leukemia,> 5 µM
same,TGI,CCRF-CEM leukemia,> 100 µM
same,GI50,KM20L2 colon,> 50 µM
same,TGI,KM20L2 colon,> 100 µM
same,TGI,OVCAR-3 ovarian,> 100 µM
same,GI50,COLO 205 colon,> 50 µM
same,TGI,COLO 205 colon,> 100 µM
same,GI50,SF-268 CNS,33.1 µM
same,TGI,SF-268 CNS,> 100 µM
same,TGI,SK-MEL-5 melanoma,> 100 µM
same,GI50,M14 melanoma,28 µM
same,TGI,M14 melanoma,50 µM and > 100 µM
same,TGI,OVCAR-5 ovarian,> 100 µM
same,GI50,SNB-19 CNS,37.4 µM
same,TGI,SNB-19 CNS,50 µM and 83.8 µM
same,GI50,MOLT-4 leukemia,30.7 µM
same,TGI,MOLT-4 leukemia,50 µM and > 100 µM
same,TGI,HOP-62 NSCLC,> 71.9 µM
same,GI50,NCI-H522 lung,> 50 µM
same,TGI,NCI-H522 lung,> 100 µM
same,GI50,OVCAR-4 ovarian,16.1 µM
same,TGI,OVCAR-4 ovarian,50 µM and 99.8 µM
same,GI50,ACHN renal,> 50 µM
same,TGI,ACHN renal,> 67.7 µM
same,TGI,OVCAR-8 ovarian,> 100 µM
same,GI50,A549 NSCLC,> 50 µM
same,TGI,A549 NSCLC,> 100 µM
same,GI50,RXF 393 renal,14.7 µM
same,TGI,RXF 393 renal,40.7 µM and 21.6 µM
same,GI50,NCI-H23 lung,> 50 µM
same,TGI,NCI-H23 lung,> 100 µM
same,GI50,SN12C renal,> 50 µM
same,TGI,SN12C renal,> 100 µM
same,GI50,SNB-75 CNS,17.2 µM
same,TGI,SNB-75 CNS,43.1 µM and 21.1 µM
same,GI50,K-562 leukemia,15.8 µM
same,TGI,K-562 leukemia,50 µM and > 31.6 µM
same,GI50,CAKI-1 renal,> 50 µM
same,TGI,CAKI-1 renal,> 62.2 µM
same,GI50,EKVX NSCLC,> 50 µM
same,TGI,EKVX NSCLC,> 100 µM
same,GI50,DLD-1 colon,> 50 µM
same,TGI,DLD-1 colon,> 100 µM
same,GI50,TK-10 renal,19.7 µM
same,TGI,TK-10 renal,50 µM and 29.6 µM
same,GI50,HOP-92 NSCLC,44.4 µM
same,TGI,HOP-92 NSCLC,50 µM and 59.7 µM
same,GI50,M19-MEL melanoma,> 50 µM
same,TGI,M19-MEL melanoma,> 100 µM
same,GI50,RPMI-8226 leukemia,> 100 µM
same,TGI,RPMI-8226 leukemia,> 100 µM
same,GI50,MALME-3M melanoma,> 50 µM
same,TGI,MALME-3M melanoma,> 100 µM
same,TGI,HOP-18 NSCLC,> 100 µM
same,GI50,IGROV1 ovarian,> 50 µM
same,TGI,IGROV1 ovarian,> 100 µM
same,GI50,KM12 colon,> 50 µM
same,TGI,KM12 colon,> 100 µM
same,GI50,786-0 renal,17.4 µM
same,TGI,786-0 renal,50 µM and 41.4 µM
same,TGI,HCT-116 colon,> 100 µM
same,GI50,NCI-H226 lung,> 50 µM
same,TGI,NCI-H226 lung,> 100 µM
same,GI50,HCT-15 colon,> 50 µM
same,TGI,HCT-15 colon,> 100 µM
same,GI50,UACC-62 melanoma,> 100 µM
same,TGI,UACC-62 melanoma,> 100 µM
same,GI50,SW-620 colon,> 50 µM
same,TGI,SW-620 colon,> 100 µM
same,GI50,UO-31 renal,> 50 µM
same,TGI,UO-31 renal,> 100 µM
same,GI50,HT29 colon,> 50 µM
same,TGI,HT29 colon,> 100 µM
same,GI50,NCI-H460 lung,> 50 µM
same,TGI,NCI-H460 lung,> 100 µM
same,TGI,U251 CNS,> 69 µM
same,GI50,HCC-2998 colon,> 50 µM
same,TGI,HCC-2998 colon,> 100 µM
same,GI50,SK-MEL-2 melanoma,> 50 µM
same,TGI,SK-MEL-2 melanoma,> 100 µM
same,GI50,SNB-78 CNS,8.88 µM
same,TGI,SNB-78 CNS,50 µM and > 100 µM
same,TGI,RXF-631 renal,50 µM and > 100 µM
same,GI50,LOX IMVI melanoma,> 50 µM
same,TGI,LOX IMVI melanoma,> 50 µM
same,GI50,SK-OV-3 ovarian,33.5 µM
same,TGI,SK-OV-3 ovarian,> 100 µM
same,GI50,SK-MEL-28 melanoma,> 50 µM
same,TGI,SK-MEL-28 melanoma,> 100 µM
same,TGI,DMS 273 small cell lung,> 100 µM
same,TGI,UACC-257 melanoma,> 100 µM
C=C(C[N+](C)(C)C)N/N=C/c1oc(-c2ccc(OC)c(OC)c2)c(-c2ccc(OC)c(OC)c2)c1[N+](=O)[O-],TGI,HL-60(TB) leukemia,33.9 µM
same,TGI,A498 renal,82.3 µM
same,TGI,XF 498 CNS,56.6 µM
same,TGI,SF-295 CNS,39.6 µM
same,TGI,SF-539 CNS,31.6 µM
same,TGI,CCRF-CEM leukemia,50.5 µM
same,TGI,DU-145 prostate,> 100 µM
same,TGI,KM20L2 colon,> 100 µM
same,TGI,OVCAR-3 ovarian,71.6 µM
same,TGI,COLO 205 colon,33.6 µM
same,TGI,SF-268 CNS,38.7 µM
same,TGI,SK-MEL-5 melanoma,31.7 µM
same,TGI,M14 melanoma,48.2 µM
same,TGI,OVCAR-5 ovarian,40.3 µM
same,TGI,SNB-19 CNS,> 100 µM
same,TGI,MOLT-4 leukemia,83.6 µM
same,TGI,NCI-H522 lung,45.3 µM
same,TGI,OVCAR-4 ovarian,38 µM
same,TGI,ACHN renal,31.5 µM
same,TGI,OVCAR-8 ovarian,31.4 µM
same,TGI,SR leukemia,23.9 µM
same,TGI,A549 NSCLC,> 100 µM
same,TGI,RXF 393 renal,30.1 µM
same,TGI,NCI-H23 lung,44.7 µM
same,TGI,SN12C renal,32.6 µM
same,TGI,SNB-75 CNS,78.2 µM
same,TGI,K-562 leukemia,52.5 µM
same,TGI,CAKI-1 renal,> 100 µM
same,TGI,EKVX NSCLC,> 100 µM
same,TGI,DLD-1 colon,46.9 µM
same,TGI,TK-10 renal,50.6 µM
same,TGI,HOP-92 NSCLC,96.2 µM
same,TGI,M19-MEL melanoma,29.3 µM
same,TGI,RPMI-8226 leukemia,41.4 µM
same,TGI,HOP-18 NSCLC,60.4 µM
same,TGI,IGROV1 ovarian,34.3 µM
same,TGI,KM12 colon,31.5 µM
same,TGI,786-0 renal,32.9 µM
same,TGI,HCT-116 colon,32.5 µM
same,TGI,NCI-H226 lung,66.3 µM
same,TGI,LXFL 529 NSCLC,52.4 µM
same,TGI,HCT-15 colon,36.8 µM
same,TGI,SW-620 colon,34.5 µM
same,TGI,UO-31 renal,33.7 µM
same,TGI,HT29 colon,32.1 µM
same,TGI,NCI-H460 lung,40.2 µM
same,TGI,U251 CNS,40.2 µM
same,TGI,HCC-2998 colon,35.5 µM
same,TGI,SK-MEL-2 melanoma,31.9 µM
same,TGI,SNB-78 CNS,> 100 µM
same,TGI,LOX IMVI melanoma,28.9 µM
same,TGI,SK-OV-3 ovarian,64.4 µM
same,TGI,SK-MEL-28 melanoma,33.8 µM
same,TGI,UACC-257 melanoma,46.6 µM
